In the assay the target is T1, F508delCFTR (Homo sapiens, UniProt P13569, DEL508-508).
T1 construct: expressed in transfected cells; host or cells: CFBE41o- human lung-derived epithelial cells (CFBE4lo-F508delCFTR-HRP), doxycycline-inducible
Description: Cell Surface Expression-Horse Radish Peroxidase (CSE-HRP) Assay.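 On Maximum % activity (with co-corrector): co-corrector and positive control are both the same reference corrector at 2 µM.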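 On Maximum % activity (without co-corrector): percent of the 2 µM on-plate positive control corrector response above DMSO.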 Format: cell-based. To be noted: for Maximum % activity (with co-corrector): with co-corrector (2 μM); for Maximum % activity (with co-corrector) / Emax: maximum at any tested concentration, normalized to on-plate positive control; for Emax: without co-corrector, read-out: Maximum % activity (without co-corrector).

[1] abbreviates: test compound without co-corrector, read-out: EC50 (without co-corrector).
Setting [2] is: with co-corrector (2 μM of 3-[(2R,4R)-4-({[1-(2,2-difluoro-1,3-benzodioxol-5-yl)cyclopropyl]carbonyl}amino)-7-methoxy-3,4-dihydro-2H-chromen-2-yl]benzoic acid), read-out: EC50 (with co-corrector).

The structures appear in SMILES notation. Read-outs that look alike come from different tables or passages of the source.

T1 sequence (P13569 with tags, fused parts or gaps DEL508-508): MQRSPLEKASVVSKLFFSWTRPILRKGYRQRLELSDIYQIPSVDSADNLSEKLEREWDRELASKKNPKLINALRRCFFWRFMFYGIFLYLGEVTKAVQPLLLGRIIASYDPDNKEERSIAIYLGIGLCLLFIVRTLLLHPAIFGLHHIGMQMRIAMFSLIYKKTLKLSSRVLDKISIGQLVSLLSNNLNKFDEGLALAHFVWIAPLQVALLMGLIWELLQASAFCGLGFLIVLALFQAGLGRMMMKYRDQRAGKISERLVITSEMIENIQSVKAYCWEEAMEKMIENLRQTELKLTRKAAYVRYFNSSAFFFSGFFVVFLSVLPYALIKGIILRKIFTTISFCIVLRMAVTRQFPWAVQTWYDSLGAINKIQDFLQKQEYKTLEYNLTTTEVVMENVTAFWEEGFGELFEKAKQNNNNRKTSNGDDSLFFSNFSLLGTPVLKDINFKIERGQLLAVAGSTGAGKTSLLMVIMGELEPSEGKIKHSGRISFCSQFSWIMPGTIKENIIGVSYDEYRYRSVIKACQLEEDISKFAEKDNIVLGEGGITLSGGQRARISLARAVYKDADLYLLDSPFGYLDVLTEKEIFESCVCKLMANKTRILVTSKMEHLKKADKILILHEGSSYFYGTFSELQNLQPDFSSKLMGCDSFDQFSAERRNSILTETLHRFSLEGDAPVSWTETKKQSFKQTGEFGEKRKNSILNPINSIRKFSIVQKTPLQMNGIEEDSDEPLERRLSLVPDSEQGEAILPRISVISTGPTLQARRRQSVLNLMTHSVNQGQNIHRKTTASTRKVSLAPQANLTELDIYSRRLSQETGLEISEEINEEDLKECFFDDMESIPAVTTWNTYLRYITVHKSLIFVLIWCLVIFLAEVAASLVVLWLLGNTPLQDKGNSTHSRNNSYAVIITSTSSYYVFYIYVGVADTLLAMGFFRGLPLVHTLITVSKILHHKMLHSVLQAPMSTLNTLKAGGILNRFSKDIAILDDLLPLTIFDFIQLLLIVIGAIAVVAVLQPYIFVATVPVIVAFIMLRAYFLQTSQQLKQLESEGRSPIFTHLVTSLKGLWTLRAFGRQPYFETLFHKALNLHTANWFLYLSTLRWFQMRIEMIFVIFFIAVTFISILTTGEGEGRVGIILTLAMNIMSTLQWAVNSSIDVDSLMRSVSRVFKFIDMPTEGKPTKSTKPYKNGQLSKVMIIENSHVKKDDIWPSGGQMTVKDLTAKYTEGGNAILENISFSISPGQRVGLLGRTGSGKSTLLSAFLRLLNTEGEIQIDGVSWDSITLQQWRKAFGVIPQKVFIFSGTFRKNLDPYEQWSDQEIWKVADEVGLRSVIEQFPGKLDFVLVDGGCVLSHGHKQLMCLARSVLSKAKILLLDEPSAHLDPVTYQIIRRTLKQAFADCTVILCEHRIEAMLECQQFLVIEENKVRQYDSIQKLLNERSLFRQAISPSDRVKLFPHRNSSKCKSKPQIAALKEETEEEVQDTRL

In general, EC50 refers to the concentration giving half of the maximal effect. `COc1ncc(C(F)(F)F)cc1CN[C@H]1[C@H](C(C)(C)C)[C@@H](C(=O)O)N(C(=O)C2CCCC2)[C@H]1c1ccccc1C(C)C` [Example 98, (2S,3S,4S,5S)-3-tert-butyl-1-(cyclopentanecarbonyl)-4-({[2-methoxy-5-(trifluoromethyl)pyridin-3-yl]methyl}amino)-5-[2-(propan-2-yl)phenyl]pyrrolidine-2-carboxylic acid]: the “Maximum % activity (with co-corrector)” value is “+++ (≥350)” and the Emax is greater than 200%. For the same compound, under setting [1], the EC50 was less than 1 µM. Besides, the concentration giving a half-maximal response (EC50) under setting [2] is less than 1 µM.

On to `COc1ccc(C(C)(C)C)cc1CN[C@H]1[C@H](C(C)(C)C)[C@@H](C(=O)O)N(C(=O)OC(C)C)[C@H]1c1cccnc1N1CCC1` [Example 99, (2S,3S,4S,5S)-5-[2-(azetidin-1-yl)pyridin-3-yl]-3-tert-butyl-4-{[(5-tert-butyl-2-methoxyphenyl)methyl]amino}-1-{[(propan-2-yl)oxy]carbonyl}pyrrolidine-2-carboxylic acid], for which the “Maximum % activity (with co-corrector)” value was “+++ (≥350)” and the Emax was greater than 200%. Moreover, under setting [1], the half-maximal effective concentration (EC50) lay in the range of 1 to 10 µM. Besides, the EC50 under setting [2] lay in the range of 1 to 10 µM.

In the case of `COc1nc2ccccc2cc1CN[C@H]1[C@H](C(C)(C)C)[C@@H](C(=O)O)N(C(=O)[C@@H]2CCCO2)[C@H]1c1ccccc1C(C)C` [Example 100, (2S,3S,4S,5S)-3-tert-butyl-4-{[(2-methoxyquinolin-3-yl)methyl]amino}-1-[(2S)-oxolane-2-carbonyl]-5-[2-(propan-2-yl)phenyl]pyrrolidine-2-carboxylic acid], the “Maximum % activity (with co-corrector)” value is “+++ (≥350)” and the Emax is greater than 200%. Besides, under setting [1], the 50% effective concentration (EC50) fell in the range of 1 to 10 µM. Moreover, the EC50 under setting [2] is less than 1 µM.

Regarding `COc1ncc(C2CC2)cc1CN[C@H]1[C@H](C(C)(C)C)[C@@H](C(=O)O)N(C(=O)[C@@H]2CCCO2)[C@H]1c1ccccc1C(C)C` [Example 101, (2S,3S,4S,5S)-3-tert-butyl-4-{[(5-cyclopropyl-2-methoxypyridin-3-yl)methyl]amino}-1-[(2S)-oxolane-2-carbonyl]-5-[2-(propan-2-yl)phenyl]pyrrolidine-2-carboxylic acid], the “Maximum % activity (with co-corrector)” value is recorded as “+++ (≥350)” and the Emax is greater than 200%. Further, the EC50 under setting [1] is 1 to 10 µM. Moreover, the EC50 under setting [2] was less than 1 µM.

On to `COc1ccc(C(C)(C)C)cc1CN[C@H]1[C@H](C(C)(C)C)[C@@H](C(=O)O)N(C(=O)C2CCC2)[C@H]1c1cccnc1N1CCC1` [Example 102, (2S,3S,4S,5S)-5-[2-(azetidin-1-yl)pyridin-3-yl]-3-tert-butyl-4-{[(5-tert-butyl-2-methoxyphenyl)methyl]amino}-1-(cyclobutanecarbonyl)pyrrolidine-2-carboxylic acid], for which the “Maximum % activity (with co-corrector)” value is given as “+++ (≥350)” and the Emax lay in the range of 100 to 200%. For the same compound, under setting [1], the EC50 fell in the range of 1 to 10 µM. Moreover, under setting [2], the EC50 fell in the range of 1 to 10 µM.

Turning to `COc1ncc(C2CCC2)cc1CN[C@H]1[C@H](C(C)(C)C)[C@@H](C(=O)O)N(C(=O)[C@@H]2CCCO2)[C@H]1c1ccccc1Cl` [Example 103, (2S,3S,4S,5S)-3-tert-butyl-5-(2-chlorophenyl)-4-{[(5-cyclobutyl-2-methoxypyridin-3-yl)methyl]amino}-1-[(2S)-oxolane-2-carbonyl]pyrrolidine-2-carboxylic acid], the “Maximum % activity (with co-corrector)” value is on record as “+++ (≥350)” and the Emax is 100 to 200%. The EC50 under setting [1] lay within 1 to 10 µM. Also, under setting [2], the concentration giving a half-maximal response (EC50) was 1 to 10 µM.

For `COc1ccc(C(C)(C)C)cc1CN[C@H]1[C@H](C(C)(C)C)[C@@H](C(=O)O)N(C(=O)[C@@H]2CCCO2)[C@H]1c1ccccc1C(C)C` [Example 104, (2S,3S,4S,5S)-3-tert-butyl-4-{[(5-tert-butyl-2-methoxyphenyl)methyl]amino}-1-[(2S)-oxolane-2-carbonyl]-5-[2-(propan-2-yl)phenyl]pyrrolidine-2-carboxylic acid], the “Maximum % activity (with co-corrector)” value is “+++ (≥350)” and the Emax is greater than 200%. The 50% effective concentration (EC50) under setting [1] is 1 to 10 µM. Besides, the EC50 under setting [2] is less than 1 µM.

As to `COc1ncc(C2CC2)cc1CN[C@H]1[C@H](C(C)(C)C)[C@@H](C(=O)O)N(C(=O)C2CCCCC2)[C@H]1c1ccccc1C` [Example 105, (2S,3S,4S,5S)-3-tert-butyl-1-(cyclohexanecarbonyl)-4-{[(5-cyclopropyl-2-methoxypyridin-3-yl)methyl]amino}-5-(2-methylphenyl)pyrrolidine-2-carboxylic acid], the “Maximum % activity (with co-corrector)” value is “+++ (≥350)” and the Emax was greater than 200%. Further, the EC50 under setting [1] was 1 to 10 µM. The 50% effective concentration (EC50) under setting [2] is less than 1 µM.

Consider `COc1ncc(C2CCC2)cc1CN[C@H]1[C@H](C(C)(C)C)[C@@H](C(=O)O)N(C(=O)[C@@H]2CCCO2)[C@H]1c1ccccc1Br` [Example 106, (2S,3S,4S,5S)-5-(2-bromophenyl)-3-tert-butyl-4-{[(5-cyclobutyl-2-methoxypyridin-3-yl)methyl]amino}-1-[(2S)-oxolane-2-carbonyl]pyrrolidine-2-carboxylic acid], for which the “Maximum % activity (with co-corrector)” value was “+++ (≥350)” and the Emax lay within 100 to 200%. Also, under setting [1], the EC50 is 1 to 10 µM. Also, the EC50 under setting [2] fell in the range of 1 to 10 µM.

Take `COc1ncc(C2CCC2)cc1CN[C@H]1[C@H](C(C)(C)C)[C@@H](C(=O)O)N(C(=O)[C@@H]2CCCO2)[C@H]1c1ccccc1C1CC1` [Example 107, (2S,3S,4S,5S)-3-tert-butyl-4-{[(5-cyclobutyl-2-methoxypyridin-3-yl)methyl]amino}-5-(2-cyclopropylphenyl)-1-[(2S)-oxolane-2-carbonyl]pyrrolidine-2-carboxylic acid]: the “Maximum % activity (with co-corrector)” value was “+++ (≥350)” and the Emax is greater than 200%. Under setting [1], the half-maximal effective concentration (EC50) is 1 to 10 µM. For the same compound, the EC50 under setting [2] is less than 1 µM.

In the case of `COc1ccc(C(C)(C)C)cc1CN[C@H]1[C@H](C(C)(C)C)[C@@H](C(=O)O)N(C(=O)[C@@H]2CCCO2)[C@H]1c1ccccc1C1CC1` [Example 108, (2S,3S,4S,5S)-3-tert-butyl-4-{[(5-tert-butyl-2-methoxyphenyl)methyl]amino}-5-(2-cyclopropylphenyl)-1-[(2S)-oxolane-2-carbonyl]pyrrolidine-2-carboxylic acid], the “Maximum % activity (with co-corrector)” value is “+++ (≥350)” and the Emax was greater than 200%. Further, the EC50 under setting [1] lay in the range of 1 to 10 µM. The EC50 under setting [2] is 1 to 10 µM.

On to `COc1ccc(C2(C)CCC2)cc1CN[C@H]1[C@H](C(C)(C)C)[C@@H](C(=O)O)N(C(=O)[C@@H]2CCCCO2)[C@H]1c1ccccc1C` [Example 109, (2S,3S,4S,5S)-3-tert-butyl-4-({[2-methoxy-5-(1-methylcyclobutyl)phenyl]methyl}amino)-5-(2-methylphenyl)-1-[(2S)-oxane-2-carbonyl]pyrrolidine-2-carboxylic acid], for which the “Maximum % activity (with co-corrector)” value is recorded as “+++ (≥350)” and the Emax is greater than 200%. Moreover, the EC50 under setting [1] was less than 1 µM. The EC50 under setting [2] was less than 1 µM.

For the compound `COc1ccc(C(C)(C)C)cc1CN[C@H]1[C@H](C(C)(C)C)[C@@H](C(=O)O)N(C(=O)[C@@H]2CCCCO2)[C@H]1c1ccccc1C` [Example 110, (2S,3S,4S,5S)-3-tert-butyl-4-{[(5-tert-butyl-2-methoxyphenyl)methyl]amino}-5-(2-methylphenyl)-1-[(2S)-oxane-2-carbonyl]pyrrolidine-2-carboxylic acid], the “Maximum % activity (with co-corrector)” value is “+++ (≥350)” and the Emax is greater than 200%. In addition, the EC50 under setting [1] was in the range of 1 to 10 µM. Besides, the EC50 under setting [2] was less than 1 µM.

Regarding `CCc1ccccc1[C@H]1[C@@H](NCc2cc(C3CCC3)cnc2OC)[C@H](C(C)(C)C)[C@@H](C(=O)O)N1C(=O)[C@@H]1CCCO1` [Example 111, (2S,3S,4S,5S)-3-tert-butyl-4-{[(5-cyclobutyl-2-methoxypyridin-3-yl)methyl]amino}-5-(2-ethylphenyl)-1-[(2S)-oxolane-2-carbonyl]pyrrolidine-2-carboxylic acid], the “Maximum % activity (with co-corrector)” value is reported as “+++ (≥350)” and the Emax was greater than 200%. In addition, under setting [1], the EC50 lay within 1 to 10 µM. The concentration for a half-maximal effect (EC50) under setting [2] was in the range of 1 to 10 µM.

On to `COc1ccc(C2(C)CCC2)cc1CN[C@H]1[C@H](C(C)(C)C)[C@@H](C(=O)O)N(C(=O)[C@@H]2CCCO2)[C@H]1c1ccccc1C1CC1` [Example 112, (2S,3S,4S,5S)-3-tert-butyl-5-(2-cyclopropylphenyl)-4-({[2-methoxy-5-(1-methylcyclobutyl)phenyl]methyl}amino)-1-[(2S)-oxolane-2-carbonyl]pyrrolidine-2-carboxylic acid], for which the “Maximum % activity (with co-corrector)” value is listed as “+++ (≥350)” and the Emax is greater than 200%. Moreover, the EC50 under setting [1] was in the range of 1 to 10 µM. Besides, the EC50 under setting [2] is less than 1 µM.

With `COc1ccc(C(C)(C)C)cc1CN[C@H]1[C@H](C(C)(C)C)[C@@H](C(=O)O)N(C(=O)[C@@H]2CCCCO2)[C@H]1c1ccccc1Br` [Example 113, (2S,3S,4S,5S)-5-(2-bromophenyl)-3-tert-butyl-4-{[(5-tert-butyl-2-methoxyphenyl)methyl]amino}-1-[(2S)-oxane-2-carbonyl]pyrrolidine-2-carboxylic acid], the “Maximum % activity (with co-corrector)” value is on record as “+++ (≥350)” and the Emax is greater than 200%. Besides, the EC50 under setting [1] lay within 1 to 10 µM. Also, the EC50 under setting [2] was less than 1 µM.

As to `COc1ncc(C(F)(F)F)cc1N[C@H]1[C@H](C(C)(C)C)[C@@H](C(=O)O)N(C(=O)C2CCCCC2)[C@H]1c1ccccc1` [Example 114, (2S,3S,4S,5S)-3-tert-butyl-1-(cyclohexanecarbonyl)-4-{[2-methoxy-5-(trifluoromethyl)pyridin-3-yl]amino}-5-phenylpyrrolidine-2-carboxylic acid], the “Maximum % activity (with co-corrector)” value is “+++ (≥350)” and the Emax is less than 100%. Further, the concentration giving a half-maximal response (EC50) under setting [1] is less than 1 µM. Further, the EC50 under setting [2] is less than 1 µM.
